Assay results published in patent US4898940A (priority 1989, dated 1990).
In brackets after ≈: the same amount, converted by molar mass.

Experiments:
[1] = Acute toxicity, single intraperitoneal administration; settings: male ddY mice
Solubility in solvents = type: physicochemical
Piricularia oryzae = type: cell-based; settings: Piricularia oryzae D 91; Sabouraud dextrose agar
[2] = tested on: gram-positive and gram-negative bacteria; assay: In vitro antibacterial activity; type: cell-based; settings: at 50 mcg/ml
Description: (§1) Nutrient agar (Eiken) was used for bacteria and Sabouraud dextrose agar (Difco) for fungi. The inoculum size was adjusted to 10^4 CFU/ml for bacteria and 10^5 -10^7 CFU/ml for fungi.

lymphoid leukemia L1210 = assay: Antitumor activity against L1210 leukemia in mice; type: in vivo, BDF1 mice; settings: for T/C % of MST: L1210 leukemia, BDF1 mice
Protocol: (§2) Lymphocytic leukemia P388 (CDF1 and BDF1 mice) and lymphoid leukemia L1210 (BDF1 mice) were inoculated by intraperitoneal injection of 0.8 ml diluted ascitic fluid containing 10^6 and 10^5 cells per mouse, respectively. Melanotic melanoma B16 (BDF1 mice) were implanted 0.5 ml of a 10% tumor brei intraperitoneally. Test materials were dissolved in 0.9% saline containing 10% dimethyl sulfoxide and graded doses of them were administered to mice intraperitoneally 24 hours after tumor implantation. Either olivomycin (NSC 38270) or mitomycin C was comparatively tested as a reference compound in the experiments.

[3] = tested on: Lymphocytic leukemia P388; assay: Antitumor activity against P388 leukemia in mice; type: in vivo, CDF1 and BDF1 mice; settings: for T/C % of MST: P388 leukemia; for antitumor activity against P388 leukemia (in words): ip
Protocol: as §2
Values for percentage ratios of 125 and above indicate significant antitumor effect.

Melanotic melanoma B16 = assay: Antitumor activity against B16 melanoma in mice; type: in vivo, BDF1 mice; settings: for T/C % of MST: B16 melanoma, BDF1 mice
Protocol: as §2

[4] = tested on: pathogenic fungi such as Candida albicans, Cryptococcus neoformans, Aspergillus fumigatus, Trichlophyton mentagrophytes and Mucor spinosus; assay: In vitro antifungal activity; type: cell-based; settings: clinically important pathogenic fungi
Description: as §1

Enterobacter cloacae = assay: MIC, serial agar dilution (nutrient agar); type: cell-based; settings: Enterobacter cloacae A9659
Description: as §1

Serratia marcescens = assay: MIC, serial agar dilution (nutrient agar); type: cell-based; settings: Serratia marcescens A20222
Description: as §1

[5] = tested on: Staphylococcus epidermidis; assay: MIC, serial agar dilution (nutrient agar); type: cell-based
Description: as §1

Pseudomonas aeruginosa = assay: MIC, serial agar dilution (nutrient agar); type: cell-based; settings: Pseudomonas aeruginosa A9930
Description: as §1

Micrococcus luteus = assay: MIC, serial agar dilution (nutrient agar); type: cell-based; settings: Micrococcus luteus PCI-1001
Description: as §1

Streptococcus faecalis = assay: MIC, serial agar dilution (nutrient agar); type: cell-based; settings: Streptococcus faecalis A9612
Description: as §1

Bacillus subtilis = assay: MIC, serial agar dilution (nutrient agar); type: cell-based; settings: Bacillus subtilis PCI-219
Description: as §1

Escherichia coli = assay: MIC, serial agar dilution (nutrient agar); type: cell-based; settings: Escherichia coli NIHJ
Description: as §1

Proteus vulgaris = assay: MIC, serial agar dilution (nutrient agar); type: cell-based; settings: Proteus vulgaris A9436
Description: as §1

Klebsiella pneumoniae = assay: MIC, serial agar dilution (nutrient agar); type: cell-based; settings: Klebsiella pneumoniae D-11
Description: as §1

Staphylococcus aureus = assay: MIC, serial agar dilution (nutrient agar); type: cell-based
Description: as §1

Proteus mirabilis = assay: MIC, serial agar dilution (nutrient agar); type: cell-based; settings: Proteus mirabilis A9554
Description: as §1

Morganella morganii = assay: MIC, serial agar dilution (nutrient agar); type: cell-based; settings: Morganella morganii A9553
Description: as §1

[6] = tested on: Trichophyton mentagrophytes; assay: MIC, serial agar dilution (Sabouraud dextrose agar); type: cell-based
Description: as §1

Petriellidium boydii = assay: as above; type: cell-based; settings: Petriellidium boydii IFO 8073
Description: as §1

Aspergillus fumigatus = assay: as above; type: cell-based
Description: as §1

Blastomyces dermaditis = assay: as above; type: cell-based; settings: Blastomyces dermaditis IFO 8144
Description: as §1

Mucor spinosus = assay: as above; type: cell-based; settings: Mucor spinosus IFO 5317
Description: as §1

Candida albicans = assay: as above; type: cell-based
Description: as §1

Cryptococcus neoformans = assay: as above; type: cell-based
Description: as §1

Sporothrix schenckii = assay: as above; type: cell-based; settings: Sporothrix schenckii IFO 8158
Description: as §1

Fusarium moniliforme = assay: as above; type: cell-based; settings: Fusarium moniliforme A 2284
Description: as §1

Aspergillus flavus = assay: as above; type: cell-based; settings: Aspergillus flavus FA 21436
Description: as §1

Question: Which LD50 [1] does the source give for `CCCCCCC/C=C/C=C/C(=O)N[C@H](C(=O)N[C@H]1C[C@@H](O)CCNC(=O)/C=C/[C@H](C)NC1=O)[C@@H](C)O` [BU-2867T A] here?
Answer: 8.1 mg/kg

Question: And the “solubility in chloroform, acetonitrile and ethyl acetate” value (Solubility in solvents)?
Answer: slightly soluble

Question: And the “solubility in methanol, ethanol, n-butanol and dimethyl sulfoxide” value (Solubility in solvents)?
Answer: readily soluble

Question: What about the “solubility in n-hexane and water” value (Solubility in solvents) of the same compound?
Answer: practically insoluble

Question: What about the MIC (Piricularia oryzae) of the same compound?
Answer: > 50 µg/mL

Question: What about the “growth inhibition of gram-positive and gram-negative bacteria (in words)” value [2] of the same compound?
Answer: did not inhibit the growth

Question: And the “T/C % of MST” value (lymphoid leukemia L1210; 0.063 mg/kg/day ip)?
Answer: 106%

Question: What about the “T/C % of MST” value (lymphoid leukemia L1210; 0.13 mg/kg/day ip) of the same compound?
Answer: 118%

Question: And the “T/C % of MST” value (lymphoid leukemia L1210; 0.25 mg/kg/day ip)?
Answer: 118%

Question: What about the “T/C % of MST” value (lymphoid leukemia L1210; 0.5 mg/kg/day ip) of the same compound?
Answer: 129%

Question: What about the “antitumor activity against L1210 leukemia (in words)” value (lymphoid leukemia L1210; compared with P388) of the same compound?
Answer: less active

Question: And the “T/C % of MST” value ([3]; 0.031 mg/kg/day ip, schedule 2 (once daily on days 1 through 9))?
Answer: 109%

Question: And the “T/C % of MST” value ([3]; 0.063 mg/kg/day ip, schedule 2 (once daily on days 1 through 9))?
Answer: 136%

Question: What about the “T/C % of MST” value ([3]; 0.1 mg/kg/day ip, schedule 1 (once daily on days 1, 4 and 7)) of the same compound?
Answer: 120%

Question: And the “T/C % of MST” value ([3]; 0.13 mg/kg/day ip, schedule 2 (once daily on days 1 through 9))?
Answer: 147%

Question: What about the “T/C % of MST” value ([3]; 0.25 mg/kg/day ip, schedule 2 (once daily on days 1 through 9)) of the same compound?
Answer: 156%

Question: And the “T/C % of MST” value ([3]; 0.3 mg/kg/day ip, schedule 1 (once daily on days 1, 4 and 7))?
Answer: 130%

Question: What about the “T/C % of MST” value ([3]; 0.5 mg/kg/day ip, schedule 2 (once daily on days 1 through 9)) of the same compound?
Answer: 186%

Question: And the “T/C % of MST” value ([3]; 1 mg/kg/day ip, schedule 1 (once daily on days 1, 4 and 7))?
Answer: 140%

Question: And the “T/C % of MST” value ([3]; 1 mg/kg/day ip, schedule 2 (once daily on days 1 through 9))?
Answer: 228%

Question: What about the “T/C % of MST” value ([3]; 2 mg/kg/day ip, schedule 2 (once daily on days 1 through 9)) of the same compound?
Answer: 67%

Question: What about the “antitumor activity against P388 leukemia (in words)” value ([3]; treatment schedule 1 (once daily on days 1, 4 and 7)) of the same compound?
Answer: showed antitumor activity

Question: And the “antitumor activity against P388 leukemia (in words)” value ([3]; treatment schedule 2 (once daily on days 1 through 9))?
Answer: highly active

Question: What about the “T/C % of MST” value (Melanotic melanoma B16; 0.25 mg/kg/day ip) of the same compound?
Answer: 113%

Question: And the “T/C % of MST” value (Melanotic melanoma B16; 0.5 mg/kg/day ip)?
Answer: 116%

Question: And the “T/C % of MST” value (Melanotic melanoma B16; 1 mg/kg/day ip)?
Answer: 125%

Question: What about the “T/C % of MST” value (Melanotic melanoma B16; 2 mg/kg/day ip) of the same compound?
Answer: Tox.

Question: What about the “antitumor activity against B16 melanoma (in words)” value (Melanotic melanoma B16; compared with P388) of the same compound?
Answer: less active

Question: And the “antifungal activity (in words)” value [4]?
Answer: somewhat less active than component C

Question: And the MIC (Enterobacter cloacae)?
Answer: > 50 µg/mL

Question: What about the MIC (Serratia marcescens) of the same compound?
Answer: > 50 µg/mL

Question: What about the MIC ([5]; Staphylococcus epidermidis A22152) of the same compound?
Answer: > 50 µg/mL

Question: And the MIC ([5]; Staphylococcus epidermidis D153)?
Answer: > 50 µg/mL

Question: What about the MIC (Pseudomonas aeruginosa) of the same compound?
Answer: > 50 µg/mL

Question: What about the MIC (Micrococcus luteus) of the same compound?
Answer: > 50 µg/mL

Question: And the MIC (Streptococcus faecalis)?
Answer: > 50 µg/mL

Question: What about the MIC (Bacillus subtilis) of the same compound?
Answer: > 50 µg/mL

Question: And the MIC (Escherichia coli)?
Answer: > 50 µg/mL

Question: And the MIC (Proteus vulgaris)?
Answer: > 50 µg/mL

Question: What about the MIC (Klebsiella pneumoniae) of the same compound?
Answer: > 50 µg/mL

Question: What about the MIC (Staphylococcus aureus; Staphyloccus aureus Bx-1633) of the same compound?
Answer: > 50 µg/mL

Question: And the MIC (Staphylococcus aureus; Staphylococcus aureus 209P)?
Answer: > 50 µg/mL

Question: And the MIC (Staphylococcus aureus; Staphylococcus aureus Smith)?
Answer: > 50 µg/mL

Question: What about the MIC (Proteus mirabilis) of the same compound?
Answer: > 50 µg/mL

Question: And the MIC (Morganella morganii)?
Answer: > 50 µg/mL

Question: What about the MIC ([6]; Trichophyton mentagrophytes #4329) of the same compound?
Answer: 25 µg/mL (≈ 48 µM)

Question: What about the MIC ([6]; Trichophyton mentagrophytes D 155) of the same compound?
Answer: 25 µg/mL (≈ 48 µM)

Question: And the MIC (Petriellidium boydii)?
Answer: > 50 µg/mL

Question: And the MIC (Aspergillus fumigatus; Aspergillus fumigatus IAM 2034)?
Answer: 1.6 µg/mL (≈ 3.07 µM)

Question: What about the MIC (Aspergillus fumigatus; Aspergillus fumigatus IAM 2530) of the same compound?
Answer: 1.6 µg/mL (≈ 3.07 µM)

Question: What about the MIC (Blastomyces dermaditis) of the same compound?
Answer: 50 µg/mL (≈ 96 µM)

Question: What about the MIC (Mucor spinosus) of the same compound?
Answer: 1.6 µg/mL (≈ 3.07 µM)

Question: What about the MIC (Candida albicans; Candida albicans A 9540) of the same compound?
Answer: 1.6 µg/mL (≈ 3.07 µM)

Question: What about the MIC (Candida albicans; Candida albicans IAM 4888) of the same compound?
Answer: 3.1 µg/mL (≈ 5.95 µM)

Question: And the MIC (Cryptococcus neoformans; Cryptococcus neoformans D 49)?
Answer: 25 µg/mL (≈ 48 µM)

Question: What about the MIC (Cryptococcus neoformans; Cryptococcus neoformans IAM 4514) of the same compound?
Answer: 25 µg/mL (≈ 48 µM)

Question: What about the MIC (Sporothrix schenckii) of the same compound?
Answer: > 50 µg/mL

Question: What about the MIC (Fusarium moniliforme) of the same compound?
Answer: > 50 µg/mL

Question: What about the MIC (Aspergillus flavus) of the same compound?
Answer: 25 µg/mL (≈ 48 µM)
